{"source": "paper PMC8067754", "about": "“Active Transport of Hepatotoxic Pyrrolizidine Alkaloids in HepaRG Cells” (International Journal of Molecular Sciences, 2021)", "key": {"HepaRG cells [1]": {"test_system": "HepaRG cells", "assay": "PA and PANO content in cell culture medium of HepaRG cells upon pharmacological transporter inhibition (LC-MS/MS)", "assay_type": "in vitro ADME, human", "conditions": "HepaRG, 2.5 µM PA, 4, 8, 24 h; CsA 10 µM, Ko143 5 µM, MK-571 50 µM, Qu 100 µM, TEA 3 mM", "protocol": "(§1) In the case of TEA, cells were pre-incubated 24 h prior to PA treatment. The inhibitors were applied anew at PA incubation.\nIn order to measure time-dependent depletion of PA and PANO content in cell culture medium, cells were seeded at a density of 0.2 × 10^6 cells per well in a 6-well plate and cultivated as described in Section 4.2. After four weeks of cultivation, cells were adapted to serum-free medium and medium substituted with insulin, transferrin, selenium (ITS) serum extender (Capricorn Scientific, Ebsdorfergrund, Germany) 48 h prior to PA incubation for optimal LC-MS/MS measurements. […] Samples were taken after 2 h, 4 h, 8 h and 24 h.\nBriefly, chromatographic separation of PA/PANO analytes was achieved on a 50 × 2.1 mm Kinetex ™ 2.6 μm CoreShell EVO C18 100 Å column protected by a SecurityGuard ™ ULTRA EVO C 18 2.1 mm guard column (both Phenomenex, Aschaffenburg, Germany) at a flow rate of 0.4 mL/min on a Shimadzu high performance liquid chromatography (HPLC) apparatus (LC-20AB, SIL-20AC HT, CTO-20AC, CBM-20A, Duisburg, Germany) coupled to an API4000 triple quadrupole MS (Sciex, Darmstadt, Germany). The following MS parameters were used for measurements in positive electrospray ionisation (ESI+) mode: ionisation voltage 2500 V, nebuliser gas 50 psi, heating gas 50 psi, curtain gas 30 psi, temperature 600 °C, collision gas level 7. The substance specific parameters are summarized in Kaltner et al. 2019 [79]."}, "SLC22A1": {"biological_target": "T1, SLC22A1 (Homo sapiens, UniProt O15245)", "T1 construct": "For measuring the uptake of ASP^+ in HepaRG cells incubated with PAs; endogenous in cells; host or cells: differentiated HepaRG cells (human hepatoma)", "T1 sequence (O15245 1-554)": "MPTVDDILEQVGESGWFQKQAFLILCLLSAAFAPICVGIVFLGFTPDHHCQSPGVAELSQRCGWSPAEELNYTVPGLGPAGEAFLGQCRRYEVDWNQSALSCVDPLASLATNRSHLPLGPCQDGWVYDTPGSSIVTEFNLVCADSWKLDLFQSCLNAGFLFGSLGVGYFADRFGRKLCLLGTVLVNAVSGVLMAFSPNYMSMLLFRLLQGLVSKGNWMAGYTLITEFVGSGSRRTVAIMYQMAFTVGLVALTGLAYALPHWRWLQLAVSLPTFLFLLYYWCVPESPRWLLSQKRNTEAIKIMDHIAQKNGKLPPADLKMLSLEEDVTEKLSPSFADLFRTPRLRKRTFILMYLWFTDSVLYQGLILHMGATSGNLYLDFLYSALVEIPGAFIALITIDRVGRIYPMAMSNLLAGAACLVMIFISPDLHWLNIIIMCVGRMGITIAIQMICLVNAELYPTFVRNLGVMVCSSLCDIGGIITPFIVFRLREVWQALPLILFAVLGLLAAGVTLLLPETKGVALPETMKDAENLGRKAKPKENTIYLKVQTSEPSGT", "assay": "ASP+ (SLC22A1 substrate) uptake measurement in HepaRG cells", "assay_type": "cell-based", "conditions": "for fluorescence [%], MW [%]: solv ctrl = 100", "protocol": "ASP^+ is an organic cationic mitochondrial dye that only fluoresces inside cells so that fluorescence measured in the cell culture medium can be neglected. […] In parallel, cells were incubated with Qu (100 µM) and TEA (3 mM) as mentioned in Section 4.3. After 24 h, cells were incubated with 1 µM ASP^+ in Hanks’ balanced salt solution (HBSS, Sigma-Aldrich, Taufkirchen, Germany) at 37 °C. Fluorescence was measured after 20 min at ASP^+-specific wavelength (λex = 475 nm and λem = 605 nm) on a TecanM200Pro spectrometer (Tecan Group Ltd., Männedorf, Switzerland) according to Ahlin et al., (2008)."}, "[2]": {"assay": "Cell viability (MTT assay) of HepaRG cells with and without transporter inhibitors", "assay_type": "cell-based, human", "conditions": "human, HepaRG cells, HepaRG, no PA, inhibitor alone 24 h: CsA 10 µM, Ko143 5 µM, MK571 50 µM, Qu 100 µM, TEA 3 mM; read-out: Cell viability (MTT), percent of solvent control, Mean [%]", "protocol": "as §1\n(§2) To analyze the cytotoxic effects of PAs on HepaRG cells with non-inhibited and inhibited hepatic transporters, the cells were seeded at a density of 9000 cells per well in the inner 60 wells of a 96-well plate and cultivated as described in Section 4.2. After four weeks of cultivation, FBS concentration in the cell culture medium was reduced to 2% for 48 h prior incubation. Thereby, inhibitory effects of peptide growth factors from the FBS on xenobiotic-metabolizing enzymes were minimized. […] The cells were pre-incubated with pharmacological inhibitors as described in Section 4.3. […] Cell viability was analyzed via the MTT test. 10 µl MTT reagent (5 mg/mL MTT dissolved in phosphate-buffered saline, PBS) was added per well and incubated for 1 h at 37 °C. The supernatant was discarded, and the violet formazan crystals dissolved in 130 µL desorption solution (0.7% sodium dodecyl sulfate in propan-2-ol). After shaking for 20 min (under protection from light), absorbance was measured on a TecanM200Pro spectrometer (Tecan Group Ltd., Männedorf, Switzerland) at a wavelength of 570 nm, along with a reference wavelength of 630 nm."}, "HepaRG cells [3]": {"test_system": "HepaRG cells", "assay": "Cell viability (MTT assay) of HepaRG cells with and without transporter inhibitors", "assay_type": "cell-based, human", "conditions": "HepaRG, 0.01% Triton X-100 positive control; listed as pos ctrl", "protocol": "as §1, §2"}}, "data": [{"molecule": "CC[N+](CC)(CC)CC", "note": "[TEA, tetraethylammonium bromide]", "values": [{"measurement": "effect of inhibitor on retrorsine and senecionine uptake and PANO formation", "setting": "HepaRG cells [1]", "result": "significantly reduced retrorsine uptake only after 8 and 24 h and senecionine uptake only after 8 h"}, {"measurement": "fluorescence [%], MW [%]", "setting": "SLC22A1; 3mM", "result": 36.1156, "unit": "%"}, {"measurement": "reduction of ASP+ (SLC22A1 substrate) uptake", "setting": "SLC22A1; HepaRG, 24 h, Qu 100 µM, TEA 3 mM, 1 µM ASP+", "result": "up to 64%"}, {"measurement": "viability at 24 h", "setting": "[2]", "result": 84.5, "unit": "%"}]}, {"molecule": "retrorsine", "values": [{"measurement": "fluorescence [%], MW [%]", "setting": "SLC22A1; 1 µM", "result": 89.2606, "unit": "%"}, {"measurement": "fluorescence [%], MW [%]", "setting": "SLC22A1; 10 µM", "result": 46.6068, "unit": "%"}, {"measurement": "fluorescence [%], MW [%]", "setting": "SLC22A1; 50 µM", "result": 25.7608, "unit": "%"}, {"measurement": "fluorescence [%], MW [%]", "setting": "SLC22A1; 100 µM", "result": 25.133, "unit": "%"}, {"measurement": "fluorescence [%], MW [%]", "setting": "SLC22A1; 250 µM", "result": 21.5057, "unit": "%"}, {"measurement": "interaction with SLC22A1", "setting": "SLC22A1; HepaRG", "result": "both inhibitors and substrates"}, {"measurement": "minimum concentration inhibiting uptake of the SLC22A1-specific substrate ASP+", "setting": "SLC22A1; HepaRG, 24 h", "result": 10, "unit": "µM"}]}, {"molecule": "Triton X-100 [reference compound]", "values": [{"measurement": "Cell viability (MTT), percent of solvent control", "setting": "HepaRG cells [3]", "result": 2.774, "unit": "%"}]}, {"molecule": "CN(C)C(=O)CCSC(SCCC(=O)O)c1cccc(/C=C/c2ccc3ccc(Cl)cc3n2)c1", "note": "(centres unmarked) [MK-571, reference compound]", "values": [{"measurement": "effect of inhibitor on retrorsine and senecionine uptake and PANO formation", "setting": "HepaRG cells [1]", "result": "decelerated retrorsine and senecionine uptake and PANO excretion, but to a lesser extent than CsA"}, {"measurement": "viability at 24 h", "setting": "[2]", "result": 106, "unit": "%"}]}]}
